Measurements taken from article PMC11862924, “Phenylpyrazoles as Inhibitors of the m^6A RNA-Binding Protein YTHDF2” (JACS Au, 2025).
Entries after “also recorded” stand apart in the source; their conditions may differ.

Key:
K562 = experiment: CCK-8 proliferation assay, K562; assay type: cell-based; conditions: Homo sapiens, CCK-8 kit assay, triplicates, 72 h, read-out: Anti-proliferation activity against cancer cells (IC50), K562
Experimental: (§1) The JAR, K562, HCT116, and MOLM13 cells were seeded in 96-well plates (3000 cells/well). After being cultured overnight, compounds were added together with the DMSO treatment (0.1%) as a control. After 72 h, CCK-8 solution (Vazyme, A311) was added, and the cells were incubated at 37 °C for 4 h. The absorbance was measured at 450 nm using a plate reader (TECAN Spark).

[1] = MTT cytotoxicity assay, HCT116; assay type: cell-based; conditions: human, HCT116 cells, triplicates, read-out: Cytotoxicity against cancer cells (IC50), HCT116
Experimental: (§2) JAR, K562, and HCT116 cells were seeded in 96-well plates (3500 cells/well) and incubated for 8 h. The medium with different concentrations of compounds (100, 33.3, 11.1, 3.7, 1.2, and 0.4 μM) was added to the 96-well plates. Data were normalized to the medium with 0.1% DMSO. After incubation for 72 h, MTT solution (5 mg/mL, 20 μL) was added per well in a dark environment and incubated for 4 h. After the medium was discarded, DMSO (150 μL) was added per well, and the absorbance was measured at 492 nm by a plate reader (TECAN Spark).

[2] = molecular target: T1, YTHDF2 (residues 383–553) (Homo sapiens, UniProt Q9Y5A9); experiment: Fluorescence polarization (FP) assay, YTHDF2–m6A RNA interaction; assay type: binding; conditions: 100 μM compound; YTHDF2 (residues 383–553, 20 nM), FAM-labeled m6A RNA probe 5 nM; average ± SD
T1 construct: A YTHDF2 YTH domain construct (residues 383–553) was subcloned to a pOPIN plasmid; made in house; host or cells: Escherichia coli BL21(DE3)
T1 sequence (Q9Y5A9 383-553): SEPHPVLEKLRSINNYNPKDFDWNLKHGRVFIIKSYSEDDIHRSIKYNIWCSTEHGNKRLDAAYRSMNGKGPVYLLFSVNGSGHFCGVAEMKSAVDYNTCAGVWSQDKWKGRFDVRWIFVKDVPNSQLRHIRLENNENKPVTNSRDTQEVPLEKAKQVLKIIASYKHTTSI
Experimental: The FP assay was performed in 384-well black plates (Corning no. 4514) with a total reaction volume of 15 μL. The final concentrations of protein (YTHDF2) and RNA were […], respectively, in a buffer containing 20 mM HEPES/KOH pH 7.5, 50 mM NaCl, 0.005% Tween 20, and 1 mM GSH (DTT). Compounds were incubated with protein, added FAM-m^6A RNA probe ([…](m6)ACUGUG) (purchased from IDT), and incubated at 4 °C for 30 min. The fluorescence polarization was measured using a plate reader (TECAN Spark) under an excitation wavelength of 485 nm and an emission wavelength of 535 nm with a bandwidth of 20 nm. […] The data were determined using GraphPad Prism 9.

HCT116 = experiment: CCK-8 proliferation assay, HCT116; assay type: cell-based; conditions: Homo sapiens, HCT-116; CCK-8 kit assay, triplicates, 72 h; read-out: Anti-proliferation activity against cancer cells (IC50), HCT116
Experimental: as §1

JAR = experiment: CCK-8 proliferation assay, JAR; assay type: cell-based; conditions: Homo sapiens; CCK-8 kit assay, triplicates, 72 h; read-out: Anti-proliferation activity against cancer cells (IC50), JAR
Experimental: as §1

[3] = MTT cytotoxicity assay, K562; assay type: cell-based; conditions: human, K562 cells, triplicates, read-out: Cytotoxicity against cancer cells (IC50), K562
Experimental: as §2

[4] = MTT cytotoxicity assay, JAR; assay type: cell-based; conditions: human, JAR cells, triplicates, read-out: Cytotoxicity against cancer cells (IC50), JAR
Experimental: as §2

YTHDF2 YTH domain = molecular target: T2, YTHDF2 YTH domain (Homo sapiens, UniProt Q9Y5A9); experiment: AlphaScreen assay; conditions: for inhibition at 100 μM in AlphaScreen: 100 μM compound; for inhibitory IC50 in AlphaScreen (in words): Figures S3 and S4
T2 sequence (Q9Y5A9 383-553): T1 sequence (Q9Y5A9 383-553)
Experimental: Initially, the YTHDF2 YTH domain at different concentrations (0–2500 nM) was incubated with varied concentrations of RNA probes (5’-Bi-CGAm6ACUGUC–3′, IDT company) (5, 25, 50, and 100 nM) in 25 mM Hepes (pH 7.5), 100 mM NaCl, and 0.1% BSA to probe the optimal ratio between protein and RNA before the detection signal reached saturation. The AlphaScreen Histidine Detection Kit (Nickel Chelate) (PerkinElmer) 6760619 M and white 384-well Optiplates (PerkinElmer) were used. Anti-His receptor beads (PerkinElmer) (final concentration: 20 μg/mL) and streptavidin donor beads (final concentration: 20 μg/mL) were first added. The reaction mixture was then incubated at room temperature in a dark environment for 1 h to reach equilibrium. The optical signal was detected using a Tecan plate reader.
The inhibitory activities of the phenylpyrazoles (at 100 µM) against YTHDF2 binders
in the amplified luminescent proximity homogeneous assay (AlphaScreen).
phenylpyrazoles featuring a 2 -hydroxybenzoyl moiety R1 (blue) and a 4 -carboxyphenyl moiety
represent average values ± s.d.

YTHDF2 [5] = molecular target: T3, YTHDF2 (Homo sapiens, UniProt Q9Y5A9); experiment: Electrophoretic mobility shift assay (EMSA); assay type: binding; conditions: for inhibition of the YTHDF2–m6A RNA interaction in EMSA at 100 μM (in words): 100 μM compound, 250 nM YTHDF2, FAM-labeled m6A RNA; for concentration-dependent inhibition of YTHDF2–m6A RNA complex formation in EMSA (in words): 3.1–100 μM compound, 250 nM YTHDF2, 20 nM FAM-labelled m6A RNA
T3 construct: A YTHDF2 YTH domain construct (residues 383–553) was subcloned to a pOPIN plasmid; made in house; host or cells: Escherichia coli BL21(DE3)
T3 sequence (Q9Y5A9 383-553): T1 sequence (Q9Y5A9 383-553)
Experimental: Compounds with different concentrations (3.1–100 μM) were incubated with 250 nM YTH-domain and 20 nM FAM-17mer-RNA in a buffer containing 20 mM HEPES, pH 8.2, 50 mM NaCl, 0.05% Triton X-100, and 5% v/v glycerol for 20 min at 4 °C. […] Gel imaging was performed in ChemiDoc MP (Bio-Rad), and Cy2/Alexa488 fluorescence was detected with a 1-min exposure time. Quantification of the gel image was performed by ImageJ.

YTHDF2 [6] = molecular target: T3, YTHDF2; experiment: nanoDSF thermal shift assay; assay type: binding; conditions: for ΔTm at 5 µM: 5 μM compound; for ΔTm at 10 µM: 10 μM compound; for ΔTm at 25 µM: 25 μM compound
Experimental: NanoDSF was measured on a NanoTemper instrument (Prometheus NT.48). YTHDF2 protein was used at a concentration of 5 μM and incubated with 50, 25, 10, and 5 μM compound in buffer (100 mM KPi, pH 7.0, 250 mM NaCl, 10% Glycerol) for 50 min, in which 0.1% DMSO was used as the reference. The heat rate was set to 1 °C per minute, measured in a range between 20 and 90 °C.

Row | Compound | IC50 (K562) [µM] | inhibition at 100 µM [2] [%] | IC50 (HCT116) [µM] | inhibition at 100 μM in AlphaScreen (YTHDF2 YTH domain) [%] | inhibitory IC50 in AlphaScreen (in words) (YTHDF2 YTH domain) | concentration-dependent inhibition of YTHDF2–m6A RNA complex formation in EMSA (in words) (YTHDF2 [5]) | ΔTm at 5 µM (YTHDF2 [6]) [°C] | ΔTm at 10 µM (YTHDF2 [6]) [°C] | ΔTm at 25 µM (YTHDF2 [6]) [°C] | IC50 at 72 h [1] [µM] | IC50 (JAR) [µM] | IC50 at 72 h [3] [µM] | IC50 at 72 h [4] [µM] | inhibition of the YTHDF2–m6A RNA interaction in EMSA at 100 μM (in words) (YTHDF2 [5])
1 | COc1ccc(O)c(C(=O)c2cnn(-c3ccc(C(=O)O)cc3)c2)c1 [CK-66] | 38.8 ± 3.7 | 63.2 ± 6.9 | 47.2 ± 8.7 | > 80 | low double-digit micromolar |  |  |  |  | > 50 | 47.3 ± 6.3 | > 50 | > 50 | 
2 | O=C(O)c1ccc(-n2cc(C(=O)c3ccc(Br)cc3O)cn2)cc1 [CK-70] | 45.5 ± 6.2 | 17.4 ± 10.5 | > 50 |  |  | dose-dependently inhibited | 0.63 ± 0.08 | 1.42 ± 0.36 | 2.42 ± 0.24 | 36.4 ± 2.8 | 48.5 ± 3.9 | 42.1 ± 14.6 | > 50 | potent inhibition; also recorded: potently inhibited
3 | O=C(O)c1ccc(-n2cc(C(=O)c3cc(F)cc(F)c3O)cn2)cc1 [CK-86] | > 50 | 54.6 ± 8.4 | > 50 |  |  |  |  |  |  | > 50 | > 50 | > 50 | > 50 | 
4 | O=C(O)c1ccc(-n2cc(C(=O)c3ccc(F)cc3O)cn2)cc1 [CK-89] | > 50 | 44.4 ± 1.8 | > 50 |  |  |  |  |  |  | 32.8 ± 7.5 | > 50 | 43.8 ± 22.7 | > 50 | 
5 | O=C(O)c1ccc(-n2cc(C(=O)c3cccc(Cl)c3O)cn2)cc1 [CK-96] | > 50 | 52.2 ± 10.1 | > 50 |  |  |  |  |  |  | 20.6 ± 8.1 | > 50 | 25.4 ± 7.8 | 40.2 ± 12.7 | 

Second part, led by results:

Row | IC50 (K562) [µM] | inhibition at 100 µM [2] [%] | IC50 (HCT116) [µM] | inhibition at 100 μM in AlphaScreen (YTHDF2 YTH domain) [%] | inhibitory IC50 in AlphaScreen (in words) (YTHDF2 YTH domain) | concentration-dependent inhibition of YTHDF2–m6A RNA complex formation in EMSA (in words) (YTHDF2 [5]) | ΔTm at 5 µM (YTHDF2 [6]) [°C] | ΔTm at 10 µM (YTHDF2 [6]) [°C] | ΔTm at 25 µM (YTHDF2 [6]) [°C] | Compound | IC50 at 72 h [1] [µM] | IC50 (JAR) [µM] | IC50 at 72 h [3] [µM] | IC50 at 72 h [4] [µM] | inhibition of the YTHDF2–m6A RNA interaction in EMSA at 100 μM (in words) (YTHDF2 [5])
6 | 43.9 ± 12 | 35.4 ± 6.5 | > 50 |  |  |  |  |  |  | CCc1ccc(O)c(C(=O)c2cnn(-c3ccc(C(=O)O)cc3)c2)c1 [CK-65] | > 50 | 45.6 ± 3.9 | > 50 | > 50 | 
7 | 33.4 ± 3.3 | 41.1 ± 7.7 | 41.6 ± 8.2 | > 80 | low double-digit micromolar | dose-dependently inhibited | 0.47 ± 0.11 | 1.35 ± 0.66 | 2.27 ± 0.26 | O=C(O)c1ccc(-n2cc(C(=O)c3cc(Cl)ccc3O)cn2)cc1 [CK-67] | 48.5 ± 4.9 | 38.5 ± 9.2 | 34.9 ± 13.4 | > 50 | potent inhibition; also recorded: potently inhibited
8 | > 50 | 26.3 ± 6.8 | > 50 |  |  |  |  |  |  | Cc1ccc(C(=O)c2cnn(-c3ccc(C(=O)O)cc3)c2)c(O)c1 [CK-73] | > 50 | > 50 | > 50 | > 50 | 
9 | > 50 | 64.7 ± 8.4 | > 50 |  |  |  |  |  |  | COc1cccc(O)c1C(=O)c1cnn(-c2ccc(C(=O)O)cc2)c1 [CK-85] | > 50 | 46.2 ± 2.6 | > 50 | > 50 | 
10 | 48.2 ± 6.3 | 28.8 ± 0.1 | > 50 |  |  |  |  |  |  | O=C(O)c1ccc(-n2cc(C(=O)c3ccc(Cl)cc3O)cn2)cc1 [CK-88] | > 50 | 39 ± 3.2 | 43.2 ± 10.4 | 25 ± 3.6 | 
